# Reference: patent publication US10793568B2, “Hormone receptor modulators for treating metabolic conditions and disorders” (ARDELYX, INC., priority 2016, dated 2020)
# Where two headings read alike, the source gives them in different places.
# Experiments:
# [1] = target: ligand binding domain of human FXR (Homo sapiens (Human), UniProt Q96RI1); experiment: FXR ligand binding assay (LanthaScreen TR-FRET, SRC2-2 peptide recruitment); details: for pEC50: -log EC50, concentration required to produce 50% activation; for Emax: read-out: % Efficacy
# [2] = target: human Farnesoid X receptor ligand-binding domain/Gal4 DNA binding domain chimera (Homo sapiens (Human), UniProt Q96RI1); experiment: Cell-based assay of FXR activation (FXR-UAS-bla HEK 293T beta-lactamase reporter); details: cellular FXR beta-lactamase reporter assay; for Emax: HEK-293T, extent of activation relative to GW4064, read-out: % Efficacy; for EC50: FXR-UAS-bla HEK 293T cells, 16 h, pEC50 = -log EC50
# Outline: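 HEK 293T cells stably expressing a Gal4-fused human FXR LBD and a UAS-driven beta-lactamase reporter were incubated with serially diluted compounds for 16 h at 37 °C in phenol red-free DMEM with 2% charcoal-stripped FBS. CCF4 FRET read-out: excitation 409 nm, emission 447 nm. pEC50 comes from a 3-parameter logistic fit, and efficacy is given as % of GW4064.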
# [3] = extent of activation relative to GW4064
# human Farnesoid X receptor ligand-binding domain/Gal4 DNA binding domain chimera, sequence (Q96RI1 262-486, change not shown): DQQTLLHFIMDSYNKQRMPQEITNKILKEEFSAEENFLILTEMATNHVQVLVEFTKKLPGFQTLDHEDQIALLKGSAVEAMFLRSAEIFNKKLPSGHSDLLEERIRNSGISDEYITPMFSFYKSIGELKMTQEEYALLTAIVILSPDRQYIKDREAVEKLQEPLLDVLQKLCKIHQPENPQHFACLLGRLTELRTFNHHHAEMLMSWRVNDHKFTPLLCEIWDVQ
# human Farnesoid X receptor ligand-binding domain/Gal4 DNA binding domain chimera, sequence (P04386 1-147 partner): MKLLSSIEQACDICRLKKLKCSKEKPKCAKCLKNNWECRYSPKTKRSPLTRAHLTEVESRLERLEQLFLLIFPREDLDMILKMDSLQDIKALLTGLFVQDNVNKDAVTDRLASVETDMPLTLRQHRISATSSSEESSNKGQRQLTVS
# ligand binding domain of human FXR, sequence (Q96RI1 262-486): as the sequence (Q96RI1 262-486, change not shown) above
Compound,pEC50 [1],"Emax [1, 3]",Emax [2],EC50 [2],Emax [1]
"O=c1[nH]c2cc(N3C[C@@H]4C[C@H]3C[C@H]4OCc3c(-c4c(Cl)cccc4Cl)noc3C3CC3)ccc2o1 [Compound I-140, 5-[(1S,4S,5R)-5-{[5-cyclopropyl-3-(2,6-dichlorophenyl)-1,2-oxazol-4-yl]methoxy}-2-azabicyclo[2.2.1]heptan-2-yl]-2,3-dihydro-1,3-benzoxazol-2-one]",9.1,142%,121%,20 nM,–
"O=C1OCc2cc(N3C[C@@H]4C[C@H]3C[C@H]4OCc3c(-c4c(Cl)cccc4Cl)noc3C3CC3)ccc21 [Compound I-141, 5-[(1S,4S,5R)-5-{[5-cyclopropyl-3-(2,6-dichlorophenyl)-1,2-oxazol-4-yl]methoxy}-2-azabicyclo[2.2.1]heptan-2-yl]-1,3-dihydro-2-benzofuran-1-one]",7,137%,106%,63.1 nM,–
"O=C(c1ccc(N2C[C@@H]3C[C@H]2C[C@H]3OCc2c(-c3c(Cl)cccc3Cl)noc2C2CC2)cc1)C(F)(F)F [Compound I-142, 1-{4-[(1S,4S,5R)-5-{[5-cyclopropyl-3-(2,6-dichlorophenyl)-1,2-oxazol-4-yl]methoxy}-2-azabicyclo[2.2.1]heptan-2-yl]phenyl}-2,2,2-trifluoroethan-1-one]",7.8,78%,104%,20 nM,–
"CN(CC(=O)O)S(=O)(=O)c1ccc(N2C[C@@H]3C[C@H]2C[C@H]3OCc2c(-c3c(Cl)cccc3Cl)noc2C2CC2)cc1 [Compound I-143, 2-{N-methyl4-[(1S,4S,5R)-5-{[5-cyclopropyl-3-(2,6-dichlorophenyl)-1,2-oxazol-4-yl]methoxy}-2-azabicyclo[2.2.1]heptan-2-yl]benzenesulfonamido}acetic Acid]",8,132%,105%,1 nM,–
"O=S(=O)(O)c1ccc(N2C[C@@H]3C[C@H]2C[C@H]3OCc2c(-c3c(Cl)cccc3Cl)noc2C2CC2)cc1 [Compound I-144, 4-[(1S,4S,5R)-5-{[5-cyclopropyl-3-(2,6-dichlorophenyl)-1,2-oxazol-4-yl]methoxy}-2-azabicyclo[2.2.1]heptan-2-yl]benzene-1-sulfonic Acid]",8.2,128%,–,< 31.6 nM,–
"O=C(O)c1cnc(N2C[C@@H]3C[C@H]2C[C@H]3OCc2c(-c3c(Cl)cccc3Cl)noc2C2CC2)nc1 [Compound I-145, 2-[(1S,4S,5R)-5-{[5-cyclopropyl-3-(2,6-dichlorophenyl)-1,2-oxazol-4-yl]methoxy}-2-azabicyclo[2.2.1]heptan-2-yl]pyrimidine-5-carboxylic Acid]",8,118%,108%,63.1 nM,–
"O=C(O)Cc1ccc(N2C[C@@H]3C[C@H]2C[C@H]3OCc2c(-c3c(Cl)cccc3Cl)noc2C2CC2)cc1 [Compound I-146, 2-{4-[(1S,4S,5R)-5-{[5-cyclopropyl-3-(2,6-dichlorophenyl)-1,2-oxazol-4-yl]methoxy}-2-azabicyclo[2.2.1]heptan-2-yl]phenyl}acetic Acid]",7.9,134%,101%,7.94 nM,–
"O=C(O)CCc1ccc(N2C[C@@H]3C[C@H]2C[C@H]3OCc2c(-c3c(Cl)cccc3Cl)noc2C2CC2)cc1 [Compound I-147, 3-{4-[(1S,4S,5R)-5-{[5-cyclopropyl-3-(2,6-dichlorophenyl)-1,2-oxazol-4-yl]methoxy}-2-azabicyclo[2.2.1]heptan-2-yl]phenyl}propanoic Acid]",8.1,–,112%,0.631 nM,142%
"O=C(O)CCCc1ccc(N2C[C@@H]3C[C@H]2C[C@H]3OCc2c(-c3c(Cl)cccc3Cl)noc2C2CC2)cc1 [Compound I-148, 4-{4-[(1S,4S,5R)-5-{[5-cyclopropyl-3-(2,6-dichlorophenyl)-1,2-oxazol-4-yl]methoxy}-2-azabicyclo[2.2.1]heptan-2-yl]phenyl}butanoic Acid]",7.8,136%,117%,20 nM,–
"O=C(O)C1(c2ccc(N3C[C@@H]4C[C@H]3C[C@H]4OCc3c(-c4c(Cl)cccc4Cl)noc3C3CC3)cc2)CC1 [Compound I-149, 1-{4-[(1S,4S,5R)-5-{[5-cyclopropyl-3-(2,6-dichlorophenyl)-1,2-oxazol-4-yl]methoxy}-2-azabicyclo[2.2.1]heptan-2-yl]phenyl}cyclopropane-1-carboxylic Acid]",8.2,106%,101%,63.1 nM,–
"O=C(O)C1(c2ccc(N3C[C@@H]4C[C@H]3C[C@H]4OCc3c(-c4c(Cl)cccc4Cl)noc3C3CC3)cc2)CCC1 [Compound I-150, 1-{4-[(1S,4S,5R)-5-{[5-cyclopropyl-3-(2,6-dichlorophenyl)-1,2-oxazol-4-yl]methoxy}-2-azabicyclo[2.2.1]heptan-2-yl]phenyl}cyclobutane-1-carboxylic Acid]",8.9,102%,96%,25.1 nM,–
"O=C(O)C1CC(c2ccc(N3C[C@@H]4C[C@H]3C[C@H]4OCc3c(-c4c(Cl)cccc4Cl)noc3C3CC3)cc2)C1 (stereo partly drawn) [Compound I-151, 3-{4-[(1S,4S,5R)-5-{[5-cyclopropyl-3-(2,6-dichlorophenyl)-1,2-oxazol-4-yl]methoxy}-2-azabicyclo[2.2.1]heptan-2-yl]phenyl}cyclobutane-1-carboxylic Acid]",8.6,134%,106%,25.1 nM,–
"CC(CC(=O)O)c1ccc(N2C[C@@H]3C[C@H]2C[C@H]3OCc2c(-c3c(Cl)cccc3Cl)noc2C2CC2)c(F)c1 (stereo partly drawn) [Compound I-152, 3-{4-[(1S,4S,5R)-5-{[5-cyclopropyl-3-(2,6-dichlorophenyl)-1,2-oxazol-4-yl]methoxy}-2-azabicyclo[2.2.1]heptan-2-yl]-3-fluorophenyl}butanoic Acid]",–,132%,105%,5.01 nM,–
"O=C(O)Cc1ccc(N2C[C@@H]3C[C@H]2C[C@H]3OCc2c(-c3c(Cl)cccc3Cl)noc2C2CC2)c(F)c1 [Compound I-153, 2-{4-[(1S,4S,5R)-5-{[5-cyclopropyl-3-(2,6-dichlorophenyl)-1,2-oxazol-4-yl]methoxy}-2-azabicyclo[2.2.1]heptan-2-yl]-3-fluorophenyl}acetic Acid]",9.2,130%,100%,10 nM,–
"O=C(O)CCc1ccc(N2C[C@@H]3C[C@H]2C[C@H]3OCc2c(-c3c(Cl)cccc3Cl)noc2C2CC2)c(F)c1 [Compound I-154, 3-{4-[(1S,4S,5R)-5-{[5-cyclopropyl-3-(2,6-dichlorophenyl)-1,2-oxazol-4-yl]methoxy}-2-azabicyclo[2.2.1]heptan-2-yl]-3-fluorophenyl}propanoic Acid]",8.6,158%,105%,0.501 nM,–
"O=C(O)CCc1ccc(N2C[C@@H]3C[C@H]2C[C@H]3OCc2c(-c3c(Cl)cccc3Cl)noc2C2CC2)cc1F [Compound I-155, 3-{4-[(1S,4S,5R)-5-{[5-cyclopropyl-3-(2,6-dichlorophenyl)-1,2-oxazol-4-yl]methoxy}-2-azabicyclo[2.2.1]heptan-2-yl]-2-fluorophenyl}propanoic Acid]",8.3,136%,102%,1 nM,–
"CC(C)(Cc1ccc(N2C[C@@H]3C[C@H]2C[C@H]3OCc2c(-c3c(Cl)cccc3Cl)noc2C2CC2)cc1F)C(=O)O [Compound I-156, 3-{4-[(1S,4S,5R)-5-{[5-cyclopropyl-3-(2,6-dichlorophenyl)-1,2-oxazol-4-yl]methoxy}-2-azabicyclo[2.2.1]heptan-2-yl]-2-fluorophenyl}-2,2-dimethylpropanoic Acid]",7.6,128%,105%,39.8 nM,–
"O=C(O)CCCc1ccc(N2C[C@@H]3C[C@H]2C[C@H]3OCc2c(-c3c(Cl)cccc3Cl)noc2C2CC2)c(F)c1 [Compound I-157, 4-{4-[(1S,4S,5R)-5-{[5-cyclopropyl-3-(2,6-dichlorophenyl)-1,2-oxazol-4-yl]methoxy}-2-azabicyclo[2.2.1]heptan-2-yl]-3-fluorophenyl}butanoic Acid]",8.2,134%,100%,2.51 nM,–
"N#Cc1cc(CCC(=O)O)ccc1N1C[C@@H]2C[C@H]1C[C@H]2OCc1c(-c2c(Cl)cccc2Cl)noc1C1CC1 [Compound I-158, 3-{3-cyano-4-[(1S,4S,5R)-5-{[5-cyclopropyl-3-(2,6-dichlorophenyl)-1,2-oxazol-4-yl]methoxy}-2-azabicyclo[2.2.1]heptan-2-yl]phenyl}propanoic Acid]",7.6,126%,104%,6.31 nM,–
"Cc1cccc(Cl)c1-c1noc(C2CC2)c1CO[C@@H]1C[C@@H]2C[C@H]1CN2c1ccc(CCC(=O)O)cc1F [Compound I-159, 3-{4-[(1S,4S,5R)-5-{[3-(2-chloro-6-methylphenyl)-5-cyclopropyl-1,2-oxazol-4-yl]methoxy}-2-azabicyclo[2.2.1]heptan-2-yl]-3-fluorophenyl}propanoic Acid]",8.2,144%,100%,1.58 nM,–
